Measurements reported in patent US20200289554A1, “BIOORTHOGONAL COMPOUNDS COMPRISING A PROPARGYL GROUP FOR TREATING CANCER” (THE UNIVERSITY COURT OF THE UNIVERSITY OF EDINBURGH, priority 2016, published 2020).

What was measured:
HCT116 cells = test: Prodrug safety dose-response cell viability (PrestoBlue), HCT116; type: cell-based; conditions: Homo sapiens, HCT-116, 120 h, 5 days, no catalyst
Description: (§1) These cell lines were selected as these are primary malignancies against which the parental drugs are currently prescribed.
(§2) The toxicities of each active agent and prodrugs were compared by performing dose-response studies. […] Cell viability was analysed by fluoresce intensity (λex=540 nm; λem=590 nm) after 60-90 min incubation with PrestoBlue™ Reagent (Life Technologies).

BxPC3 cells = test: Prodrug safety dose-response cell viability (PrestoBlue), BxPC3; type: cell-based; conditions: Homo sapiens, BXPC-3, 120 h, 5 days, no catalyst
Description: as §1, §2

T98 cells = test: BOOM conversion: prodrug + Pd0-resins in cell culture, cell viability, T98; type: cell-based, human; conditions: Pd0-resin 1 mg/mL, 1 μM Doxorubicin prodrugs
Description: (§3) Following 5 days treatment, cells were incubated with PrestoBlue™ Cell Viability Reagent (Life Technologies) for 60-90 min. Fluorescence intensity values were related to the untreated cells (100% cell viability). […] Cells incubated in 0.1% (v/v) DMSO in media were used as untreated cell control.
(§4) Cell viabilities for each prodrug provided as a combination with palladium is presented in FIG. 7 in the right of each set of two bars. Data for prodrug in the absence of palladium catalyst is also provided (the left bar of each set of two bars) for comparison along with negative controls (from left to right: DMSO, Pd^0 and Doxorubicin). Cells were incubated in tissue culture media containing 0.1% (v/v) DMSO and: Pd^0-resins (1 mg/mL, negative control); 1 μM of each prodrug (negative control); and Pd^0-resins (1 mg/mL)+1 μM of each prodrug (BOOM reaction assay). Cells incubated in 0.1% (v/v) DMSO in media were used as untreated cell control.
(§5) Following 5 days treatment, cells were incubated with PrestoBlue™ Cell Viability Reagent (Life Technologies) for 90 min. Fluorescence intensity values were related to the untreated cells (100% cell viability). Data are provided in FIG. 8 for cells incubated in tissue culture media containing 0.1% (v/v) DMSO and: Pd^0-resins (1 mg/mL, negative control); 0.3-3 μM of Doxorubicin prodrug for A549 and DU145 cell lines, 0.1-1 μM of Doxorubicin prodrug for T98 cell line (negative control); 0.3-3 μM of Doxorubicin for A549 and DU145 cell lines, 0.1-1 μM of Doxorubicin for T98 cell line (positive control); and Pd^0-resin (1 mg/mL)+Doxorubicin prodrug (BOOM reaction assay). Cells incubated in 0.1% (v/v) DMSO in media were used as untreated cell control.
(§6) The toxigenic effect as a result of in situ generation of parental drug in cell culture was determined by incubating all cells in tissue culture media containing 0.1% (v/v) DMSO and a) Pd^0, Au, or Pd/Au-resin (1 mg/mL for all cells tested, negative control); b) prodrug (negative control); or c) Pd^0, Au, or Pd/Au-resin (1 mg/mL for all cells)+prodrug (reaction assay). Cells incubated in 0.1% (v/v) DMSO in media was used as an untreated cell reference standard (100% viability). A PrestoBlue® cell viability assay as described above was carried out and fluorescent intensities compared to the untreated cell control.
(§7) A dose response study was performed for each cell line keeping the quantity of Pd^0 resin constant (0.8 mg/mL for U87G and 1 mg/mL for the rest of cell lines). All cells were plated in Dulbecco's Modified Eagle Media (DMEM) supplemented with serum (10% FBS) and L-glutamine (2 mM). […]

A549 cells = test: BOOM conversion: prodrug + metal resins in cell culture, cell viability, A549; type: cell-based, human; conditions: Pd0-resin 1 mg/mL, 100 μM Vorinostat prodrugs, 1 μM Doxorubicin prodrugs, 0.3 μM Panobinostat prodrug
Description: Cell viabilities for each prodrug provided as a combination with palladium is presented in FIG. 3 and gold is presented in FIG. 33 in the right of each set of two bars. […] Cells were incubated in tissue culture media containing 0.1% (v/v) DMSO and: Pd^0, Au, or Pd/Au-resins (1 mg/mL, negative control); 100 μM of each prodrug (negative control); and Pd^0, Au, or Pd/Au-resins (1 mg/mL)+100 μM of each prodrug (BOOM reaction assay). Cells incubated in 0.1% (v/v) DMSO in media were used as untreated cell control.
as §3, §4, §5
as §4, with “21” for “7”, “panobinostat).” for “Doxorubicin).”
as §6, §7

DU145 cells = test: BOOM conversion: prodrug + Pd0-resins in cell culture, cell viability, DU145; type: cell-based, human; conditions: Pd0-resin 1 mg/mL, 1 μM Doxorubicin prodrugs
Description: as §4
as §5, with “Cells incubated in 0.1% (v/v) DMSO in media were used as untreated cell control.” left out
(§8) The toxigenic effect as a result of in situ generation of parental drug in cell culture was determined by incubating all cells in tissue culture media containing 0.1% (v/v) DMSO and a) Pd^0, Au, or Pd/Au-resin (1 mg/mL for all cells tested, negative control); b) prodrug (negative control); or c) Pd^0, Au, or Pd/Au-resin (1 mg/mL for all cells)+prodrug (reaction assay). […]
(§9) A dose response study was performed for each cell line keeping the quantity of Pd^0 resin constant (0.8 mg/mL for U87G and 1 mg/mL for the rest of cell lines). […] Fluorescence intensity values (detected using a PerkinElmer EnVision 2101 multilabel reader with excitation filter at 540 nm and emissions filter at 590 nm) were determined relative to the untreated cell control.

MiaPaCa2 cells [1] = test: BOOM conversion: prodrug + Pd0-resins in cell culture, cell viability, MiaPaCa2; type: cell-based, human; conditions: for toxigenic effect of prodrug + Pd0 resins: Pd0-resin 1 mg/mL, 0.03 μM Gemcitabine prodrugs
Description: as §4, with “FIG. 10” for “FIG. 7”, “and Gemcitabine).” for “and Doxorubicin).”, “control); 0.03” for “control); 1”, “(1 mg/mL)+0.03” for “(1 mg/mL)+1”
Following 5 days treatment, cells were incubated with PrestoBlue™ Cell Viability Reagent (Life Technologies) for 90 min. Fluorescence intensity values were related to the untreated cells (100% cell viability). Data are provided in FIG. 11 for cells incubated in tissue culture media containing 0.1% (v/v) DMSO and: Pd^0-resins (1 mg/mL, negative control); 0.003-0.3 μM of pPOBC-Gem (negative control); 0.003-0.3 μM of Gemcitabine (positive control); and Pd^0-resin (1 mg/mL)+pPOBC-Gem (BOOM reaction assay). Cells incubated in 0.1% (v/v) DMSO in media were used as untreated cell control.
as §8, with “assay). Cells incubated in 0.1% (v/v) DMSO in media was used as an untreated cell reference standard (100% viability).” for “assay).”
as §9

MiaPaCa2 cells [2] = test: Prodrug safety dose-response cell viability (PrestoBlue), MiaPaCa2; type: cell-based, human
Description: as §1, §2

A2780 cells = test: Prodrug safety dose-response cell viability (PrestoBlue), A2780; type: cell-based; conditions: Homo sapiens, 120 h, 5 days, no catalyst
Description: as §1, §2

Row | Compound | toxigenic effect of prodrug + Pd0 resins (T98 cells) | toxigenic effect of prodrug + Pd0 resins (A549 cells) | toxigenic effect of prodrug + Pd0 resins (DU145 cells) | further results
1 | O=c1[nH]cc(F)c(=O)[nH]1 [5FU, 5-fluorouracil, reference compound] |  |  |  | EC50 (HCT116 cells): 1500 nM; EC50 (BxPC3 cells): 140 nM
2 | COc1cccc2c1C(=O)c1c(O)c3c(c(O)c1C2=O)C[C@@](O)(C(=O)CO)C[C@@H]3OC1C[C@H](NC(=O)OCc2ccccc2)[C@H](O)[C@H](C)O1 (stereo partly drawn) [Cbz-Dox, Carboxybenzyl Doxorubicin] | only low levels of toxicity | only low levels of toxicity | only low levels of toxicity | 
3 | O=C(Nc1ccn(C2OC(CO)C(O)C2(F)F)c(=O)n1)OCc1ccccc1 (stereo not drawn) [Cbz-Gem, reference compound] |  |  |  | toxigenic effect of prodrug + Pd0 resins (MiaPaCa2 cells [1]): only low levels of toxicity
4 | Nc1ccn([C@@H]2O[C@H](CO)[C@@H](O)C2(F)F)c(=O)n1 [Gemcitabine, reference compound] |  |  |  | EC50 (MiaPaCa2 cells [2]; Homo sapiens, MIA PaCa-2, 120 h, 5 days, no catalyst): 13 nM
5 | O=C(c1cc(Cc2n[nH]c(=O)c3ccccc23)ccc1F)N1CCN(C(=O)C2CC2)CC1 [Olaparib, reference compound] |  |  |  | EC50 (A2780 cells): 1870 nM
6 | C#CCOc1nnc(Cc2ccc(F)c(C(=O)N3CCN(C(=O)C4CC4)CC3)c2)c2ccccc12 [Prop-Olap, 4-[(3-[(4-cyclopropylcarbonyl)piperazin-4-yl]carbonyl)-4-fluorophenyl]methyl-phthalazin-1-oxypropargyl] |  |  |  | EC50 (A2780 cells): > 100000 nM
7 | C#CCOc1ccccc1COC(=O)N[C@H]1CC(O[C@H]2C[C@](O)(C(=O)CO)Cc3c(O)c4c(c(O)c32)C(=O)c2c(OC)cccc2C4=O)O[C@@H](C)[C@H]1O (stereo partly drawn) [oPOBC-Dox, 2-proparglyoxybenzylcarbamoyl Doxorubicin] | strong toxigenic effect | strong toxigenic effect | strong toxigenic effect | 
8 | C#CCOc1ccc(COC(=O)N[C@H]2CC(O[C@H]3C[C@](O)(C(=O)CO)Cc4c(O)c5c(c(O)c43)C(=O)c3c(OC)cccc3C5=O)O[C@@H](C)[C@H]2O)cc1 (stereo partly drawn) [pPOBC-Dox, 4-proparglyoxybenzylcarbamoyl Doxorubicin] | strong toxigenic effect | strong toxigenic effect | strong toxigenic effect | 
9 | C#CCOc1ccc(COC(=O)Nc2ccn(C3OC(CO)C(O)C3(F)F)c(=O)n2)cc1 (stereo not drawn) [pPOBC-Gem, 4-proparglyoxybenzylcarbamoyl Gemcitabine] |  |  |  | EC50 (MiaPaCa2 cells [1]; Homo sapiens, MIA PaCa-2, 120 h, prodrug in combination with Pd0-resins 1 mg/mL, 5 days, read-out: EC50, prodrug + Pd-resins): 226 nM; toxigenic effect of prodrug + Pd0 resins (MiaPaCa2 cells [1]): strong toxigenic effect; reduction in the cytotoxic effect relative the parent active agent (MiaPaCa2 cells [2]; relative to Gemcitabine): 27 fold
